PubChem BioAssay (NCI)
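Step 1: Grow cells in 96-well plates. Step 2: Expose to compound for 48 hours at 5 concentrations. Step 3: Interpolate endpoints linearly; if unreached, use highest concentration. TGI: total growth inhibition.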

Key:
Assay in all cases: NCI-60 cell line screen, 48 h
HOP-92 NSCLC = system: HOP-92 NSCLC
T-47D breast = system: T-47D breast
OVCAR-8 ovarian = system: OVCAR-8 ovarian
MDA-N = system: MDA-N
SK-MEL-5 melanoma = system: SK-MEL-5 melanoma
MALME-3M melanoma = system: MALME-3M melanoma
OVCAR-3 ovarian = system: OVCAR-3 ovarian
MOLT-4 leukemia = system: MOLT-4 leukemia
HOP-62 NSCLC = system: HOP-62 NSCLC
K-562 leukemia = system: K-562 leukemia
MCF7 breast = system: MCF7 breast
M14 melanoma = system: M14 melanoma
SNB-19 CNS = system: SNB-19 CNS
OVCAR-5 ovarian = system: OVCAR-5 ovarian
COLO 205 colon = system: COLO 205 colon
CAKI-1 renal = system: CAKI-1 renal
KM12 colon = system: KM12 colon
SW-620 colon = system: SW-620 colon
SK-OV-3 ovarian = system: SK-OV-3 ovarian
SF-268 CNS = system: SF-268 CNS
SF-539 CNS = system: SF-539 CNS
MDA-MB-231 breast = system: MDA-MB-231 breast
RXF 393 renal = system: RXF 393 renal
HL-60(TB) leukemia = system: HL-60(TB) leukemia
HCT-15 colon = system: HCT-15 colon
NCI-H522 lung = system: NCI-H522 lung
NCI/ADR-RES ovarian = system: NCI/ADR-RES ovarian
A549 NSCLC = system: A549 NSCLC
HCT-116 colon = system: HCT-116 colon
OVCAR-4 ovarian = system: OVCAR-4 ovarian
HT29 colon = system: HT29 colon
NCI-H460 lung = system: NCI-H460 lung
SNB-75 CNS = system: SNB-75 CNS
U251 CNS = system: U251 CNS
UACC-257 melanoma = system: UACC-257 melanoma
IGROV1 ovarian = system: IGROV1 ovarian
TK-10 renal = system: TK-10 renal
SF-295 CNS = system: SF-295 CNS
HCC-2998 colon = system: HCC-2998 colon
CCRF-CEM leukemia = system: CCRF-CEM leukemia
SK-MEL-2 melanoma = system: SK-MEL-2 melanoma
UACC-62 melanoma = system: UACC-62 melanoma
NCI-H23 lung = system: NCI-H23 lung
HS 578T breast = system: HS 578T breast
EKVX NSCLC = system: EKVX NSCLC
RPMI-8226 leukemia = system: RPMI-8226 leukemia
PC-3 prostate = system: PC-3 prostate
NCI-H226 lung = system: NCI-H226 lung
BT-549 breast = system: BT-549 breast
SR leukemia = system: SR leukemia
LOX IMVI melanoma = system: LOX IMVI melanoma
SK-MEL-28 melanoma = system: SK-MEL-28 melanoma
MDA-MB-435 = system: MDA-MB-435
A498 renal = system: A498 renal
786-0 renal = system: 786-0 renal
ACHN renal = system: ACHN renal
SN12C renal = system: SN12C renal
DU-145 prostate = system: DU-145 prostate

Measured: TGI

COC1CCC(OS(C)(=O)=O)C(C)O1 (stereo not drawn)
> 10 µM: HOP-92 NSCLC | T-47D breast | OVCAR-8 ovarian | MDA-N | SK-MEL-5 melanoma | MALME-3M melanoma | OVCAR-3 ovarian | MOLT-4 leukemia | HOP-62 NSCLC | K-562 leukemia | MCF7 breast | M14 melanoma | SNB-19 CNS | OVCAR-5 ovarian | COLO 205 colon | CAKI-1 renal | KM12 colon | SW-620 colon | SK-OV-3 ovarian | SF-268 CNS | SF-539 CNS | MDA-MB-231 breast | RXF 393 renal | HL-60(TB) leukemia | HCT-15 colon | NCI-H522 lung | NCI/ADR-RES ovarian | A549 NSCLC | HCT-116 colon | OVCAR-4 ovarian | HT29 colon | NCI-H460 lung | SNB-75 CNS | U251 CNS | UACC-257 melanoma | IGROV1 ovarian | TK-10 renal | SF-295 CNS | HCC-2998 colon | CCRF-CEM leukemia | SK-MEL-2 melanoma | UACC-62 melanoma | NCI-H23 lung | HS 578T breast | EKVX NSCLC | RPMI-8226 leukemia | PC-3 prostate | NCI-H226 lung | BT-549 breast | SR leukemia | LOX IMVI melanoma | SK-MEL-28 melanoma | MDA-MB-435 | A498 renal | 786-0 renal | ACHN renal | SN12C renal | DU-145 prostate
